# Data reported in patent US11964000B2, “Cancer treatment methods using nanofiber stabilized growth factors” (Northwestern University, priority 2020, dated 2024).
# “Also recorded” adds a separate entry of the source. Residues, ends and D or L forms follow the SMILES beside them. Groups on a side chain read outwards from the residue. *: point of attachment. X1 = CC(=O)N[C@H]1[C@H](OCCn2cc(CCC(=O)*)nn2)O[C@H](COS(=O)(=O)O)[C@@H](OS(=O)(=O)O)[C@@H]1OS(=O)(=O)O; Palmitoyl = CCCCCCCCCCCCCCCC(=O)*; AEEA = NCCOCCOCC(=O)O
# What was measured:
# [1] = Cy3-coupled PA, intracranial injection, compared with E2PA and MixPA
# Source text: (FIG. 6A) Intracranial distribution of glycosylated (GlncPA), E2 (E2PA) and glycosylated+E2 (MixPA) peptide amphiphiles coupled with Cy3.
# Intracranial distribution of PAs administered directly into mouse brain, as well as the anti-tumor activity of direct intratumoral administration of PA-bound BMP4, was investigated.
# BMP4 = target: T1, BMP4 (Homo sapiens, UniProt P12644); test: ELISA of BMP4 half-life with peptide amphiphile nanostructures; details: BMP4 with PA nanostructures
# T1 sequence (P12644 293-408): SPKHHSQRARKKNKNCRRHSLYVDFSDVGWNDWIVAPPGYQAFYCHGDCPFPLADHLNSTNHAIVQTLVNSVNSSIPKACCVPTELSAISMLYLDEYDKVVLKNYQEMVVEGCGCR
# Description: FIG. 3. […] (FIG. 3A) Molecular structure of GlncPA molecule (i.e. the glycosylated peptide amphiphile or “GPA”) and schematic of the self-assembled GlncPA nanofiber. The grey molecular region guides the self-assembly process into nanofibers, the blue molecular region contains the tri-sulfated monosaccharide responsible for protein binding actions. (FIG. 3B) SEM of GlncPA nanofiber bundles after exposure to blood proteins for 5 minutes. […] (Abbreviation: E2PA=filler PA=E2-PA, GlncPA=glycosylated PA=GPA)
# The grey molecular region guides the self-assembly process into nanofibers, the blue molecular region contains the tri-sulfated monosaccharide responsible for protein binding actions.
# KNS42 cells = test: KNS42 cell viability in response to vincristine and vinblastine after BMP4 treatment; assay type: cell-based, human
# Source text: (§1) FIG. 2. BMP4 increases chemotherapeutic efficacy via reducing SETD1A and H3K4me3. (FIG. 2A) H3K4me3 levels in pediatric high-grade glioma cells in response to BMP4 (1 to 100/ng/ml). (FIG. 2B) SETD1A, SMAD1/5/8, MDR1, H3K4me3 levels in pediatric high-grade glioma-KNS42 cells and LCH-13-pGBM patient derived primary cultured cells. (FIG. 2C) KNS42 cell viability in response to vincristine (VCR) and vinblastine (VBL) with/without Dorsomorphine, a phosphoSMAD1/5/8 inhibitor. (FIG. 2D, FIG. 2E) KNS42 cell viability in response to VCR and VBL following down- or up-regulation of SETD1A via siSETD1A (D) or pET28-SETD1A and pET28-SETD1A with PSC833, a specific MDR1 inhibitor (E), respectively. (FIG. 2F) Protein immunoprecipitation with SMAD1/5/8, pSMAD1/5/8 antibodies from total protein extracts from BMP4 treated KNS42 cells using Biotin-streptavidin kit (Thermo Fisher) and detected with SETD1A, SMAD1/5/8, pSMAD1/5/8 using western blots.
# (§2) This decreasing effect is reversed by Dorsomorphine, an inhibitor of pSMAD1/5/8 (FIG. 2C). In parallel, it was also tested and verified that SETD1A is associated with chemosensitivity in vitro in HGG cells (FIGS. 2D and E). […] Thus, it was hypothesized that BMP4 is altering gene expression through its effect on histone PTM. These findings prompted investigation of 1) in addition to H3K4me3, determining other histone PTMs that are affected subsequent to BMP4 treatment of tumor cells; and 2) other gene expression alterations that contribute to the heightened tumor cell response to cytotoxic therapy following BMP4 treatment.
# pSMAD1/5/8 = test: Western blot of pSMAD1/5/8 in HGG cells treated with PAs with and without BMP4; assay type: cell-based, human; details: PA 25 μM with BMP4 5 ng/ml, 24h and 72h; KNS42 and CHLA200 cells
# Source text: (§3) FIG. 5. Self-assembled peptide amphiphile nanostructures extend and enhance BMP4 effects in pediatric high grade glioma cells in vitro. (FIG. 5A) Western blots show PAs enhance BMP4 function by activating its downstream target pSMAD1/5/8 in pediatric glioma KNS42 (FIG. 5B) and CHLA200 cells. (FIG. 5C) Increased therapeutic efficacy in response to carboplatin treatment.
# (§4) To investigate biological effects of PA-BMP4, HGG responses to different types of PAs, both with and without bound BMP4, were analyzed. HGG cells were treated with BMP4 (5 ng/ml), GlncPA (25 μM) and GlncPA (25 μM)-BMP4 (5 ng/ml), E2-PA (25 μM) and E2-PA (25 μM)-BMP4 (5 ng/ml) for 24h and 72h.
# HGG cells = test: HGG cell chemosensitivity (carboplatin) with PA-bound BMP4; assay type: cell-based, human; details: PA 25 μM with BMP4 5 ng/ml; response to carboplatin treatment
# Source text: as §3, §4
# H3K4me3 = H3K4me3 levels in pediatric high-grade glioma cells in response to BMP4; assay type: cell-based, human; details: BMP4 1 to 100 ng/ml
# Source text: as §1
# This decreasing effect is reversed by Dorsomorphine, an inhibitor of pSMAD1/5/8 (FIG. 2C). In parallel, it was also tested and verified that SETD1A is associated with chemosensitivity in vitro in HGG cells (FIGS. 2D and E). […] Thus, it was hypothesized that BMP4 is altering gene expression through its effect on histone PTM. […]
# pSMAD1/5/8, SETD1A, MDR1 = test: Western blot of SETD1A, SMAD1/5/8, MDR1 in KNS42 cells and LCH-13-pGBM primary cultured cells after BMP4; assay type: cell-based, human; details: KNS42 and LCH-13-pGBM cells, BMP4 treatment
# Source text: as §1, §2
molecule,measurement,setting,value
CCCCCCCCCCCCCCCC(=O)N[C@H](C(=O)N[C@H](C(=O)N[C@@H](C)C(=O)N[C@@H](C)C(=O)N[C@@H](CCC(=O)O)C(=O)N[C@@H](CCC(=O)O)C(=O)N[C@@H](CCCCNC(=O)COCCOCCNC(=O)CCc1cn(CCO[C@@H]2O[C@H](COS(=O)(=O)O)[C@@H](OS(=O)(=O)O)[C@H](OS(=O)(=O)O)[C@H]2NC(C)=O)nn1)C(N)=O)C(C)C)C(C)C [GlncPA] (Palmitoyl-VVAAEEK([AEEA-X1])-NH2),intracranial distribution,[1],greater distribution
same,BMP4 half-life,BMP4,markedly prolong the half-life of BMP4
"c1cc(-c2cnn3cc(-c4ccc(OCCN5CCCCC5)cc4)cnc23)ccn1 [Dorsomorphine, reference compound]",effect on BMP4-induced decrease of cell viability with VCR or VBL,"KNS42 cells; Dorsomorphine, inhibitor of pSMAD1/5/8, added",reversed
CCCCCCCCCCCCCCCC(=O)N[C@H](C(=O)N[C@H](C(=O)N[C@@H](C)C(=O)N[C@@H](C)C(=O)N[C@@H](CCC(=O)O)C(=O)N[C@@H](CCC(=O)O)C(N)=O)C(C)C)C(C)C [E2-PA] (Palmitoyl-VVAAEE-NH2),BMP4 activity as phosphorylation of SMAD1/5/8,pSMAD1/5/8,enhance BMP4 activity
same,BMP4 half-life,BMP4,extend BMP4 half-life
same,HGG cell chemosensitivity,HGG cells,increased HGG cell chemosensitivity
Bone morphogenetic protein 4 (protein) SPKHHSQRARKKNKNCRRHSLYVDFSDVGWNDWIVAPPGYQAFYCHGDCPFPLADHLNSTNHAIVQTLVNSVNSSIPKACCVPTELSAISMLYLDEYDKVVLKNYQEMVVEGCGCR,H3K4me3 level,H3K4me3,reduces H3K4me3; also recorded: significant decrease in H3K4me3
same,expression of SETD1A,"pSMAD1/5/8, SETD1A, MDR1",decreasing expression of SETD1A
same,expression of multidrug resistant gene 1 (MDR1),"pSMAD1/5/8, SETD1A, MDR1",decreasing expression
same,phosphorylation of SMAD1/5/8 (pSMAD1/5/8),"pSMAD1/5/8, SETD1A, MDR1",increases phosphorylation of SMAD1/5/8
same,cell viability with vinblastine (VBL),"KNS42 cells; BMP4 for 48 hrs, then VBL 2 μg/ml, relative to VBL alone",markedly decreased cell viability
same,cell viability with vincristine (VCR),"KNS42 cells; BMP4 for 48 hrs, then VCR 1 μg/ml, relative to VCR alone",markedly decreased cell viability
